The results in this text go back to PMC10897476, “Pyridylpiperazine efflux pump inhibitor boosts in vivo antibiotic efficacy against K. pneumoniae” (EMBO Molecular Medicine, 2023).

The data set can be described thus: Pharmacokinetics in mice, single oral dose (plasma, whole lung). To be noted: for concentration at 0.5 h / concentration at 1 h / concentration at 1.5 h / concentration at 2 h / concentration at 4 h / concentration at 6 h / concentration at 24 h: mice. The protocol:
BDM91288 (5) was dissolved in 10% kleptose hydroxypropyl-β-cyclodextrin in distilled water and administered per os at 30 mg/kg to female CD-1 mice (~25–30 g). The concentration of BDM91288 (5) in plasma and lungs was measured at different time points after administration of a single dose of compounds. Three mice per time point were anesthetized with isoflurane and blood taken from the retro-orbital sinus using sampling heparinated tubes (4 °C). The blood samples were centrifuged (3500 rpm, 20 min, 4 °C) for plasma separation and stored at −80 °C before BDM91288 measurement. After rodent sacrifice by cervical dislocation, lung was washed in sodium chloride solution (0.9%), frozen in liquid nitrogen and stored at −80 °C.
Plasma and BAL fluid samples were thawed on ice. Aliquots were precipitated with ice-cold MeCN/MeOH 50:50 (1 to 10 ratio) containing propranolol (100 nM) as internal standard. The samples were vigorously mixed with a vortex and centrifuged for 10 min at 12,000 rpm, 4 °C, and the supernatants were transferred into Matrix tubes for LC-MS/MS analysis. Lungs were homogenized in ultrapure water, in a 1 to 4 ratio (W/V) (using a Tissue Lyzer II from Qiagen); then compounds were extracted with a MeOH/MeCN 50:50 mixture in a 1 to 1 ratio (V/V). After centrifugation (12,000 rpm, 10 min, 4 °C) of the homogenate samples, supernatants were diluted (1 to 10) with a MeOH/MeCN 50:50 mixture containing propranolol (100 nM) as internal standard and transferred into Matrix tubes for LC-MS/MS analysis. Spiked standard solutions were prepared the same way in control matrix.
Samples were analysed using a UPLC system Acquity I Class (Waters), combined with a triple quadrupole mass spectrometer Xevo TQD (Waters). The column, placed at 40 °C, was an Acquity BEH C18 50 × 2.1 mm, 1.7 μm column (Waters) and the following mobile phases were used: H2O 0.1% HCOOH as solvent A and MeCN 0.1% HCOOH as solvent B at a flow rate of 0.6 mL/min. The gradient was initiated at 2% B, maintained for 10 s then increased linearly to 98% B in 1′50 and maintained at 98% B for 30 s before returning to initial conditions. […] Data analysis and processing were performed using MassLynx software (Waters).

Setting [1] is: female, CD-1, mouse, in vivo, po, 30 mg/kg.
Where [2] appears, read: female, CD-1, mouse, in vivo, po, 30 mg/kg, Caverage plasma, single 30 mg/kg p.o.
Setting [3] is: female, CD-1, mouse, in vivo, po, 30 mg/kg, Caverage whole lung, single 30 mg/kg p.o.

Values joined by “and” are separate entries in the source; they are usually repeats but may differ in a detail not shown here. Identical values can stand only once. Like-named read-outs stand apart in the source and are kept apart here. Some results are limits rather than exact numbers.

Usually Tmax stands for the time at which the peak concentration occurs. One may read the half-life as the time needed for the level to fall by half in the phase considered. Higher therefore signals slow loss. By AUC(0-t) is commonly meant exposure summed from dosing to a finite time, without extrapolation to infinity. Low values mean less exposure, high ones more exposure.

In the case of `Clc1cc2cc(N3CCNCC3)ccc2nc1N1CCNCC1` [compound 5], under setting [1], the Tmax worked out at 4 h and the half-life is over 10 h. Under “female, CD-1, mouse, in vivo, po, 30 mg/kg, AUC(0-24h) plasma, single 30 mg/kg p.o., female CD-1 mice”, this compound registered an AUC(0-t) of 27 µM·h. Besides, the AUC(0-t) (female, CD-1, mouse, in vivo, po, 30 mg/kg, AUC(0-24h) whole lung, single 30 mg/kg p.o., female CD-1 mice) amounted to 3880 µM·h. In addition, under setting [2], the concentration at 0.5 h stood at 800 nM, the concentration at 1 h came out at 1600 nM, the concentration at 1.5 h came to 1300 nM and the concentration at 2 h amounted to 1800 nM. Under setting [2], this compound had a concentration at 4 h of 2000 nM, a concentration at 6 h of 1400 nM and a concentration at 24 h of 500 nM. Further, under setting [3], the concentration at 0.5 h is 35.4 µM and 11700 ng/g; the concentration at 1 h is 93.5 µM and 31000 ng/g; the concentration at 1.5 h was 102 µM and 33800 ng/g; the concentration at 2 h was 160 µM and 53100 ng/g. Moreover, under setting [3], the concentration at 4 h is 225 µM and 74700 ng/g; the concentration at 6 h was 168 µM and 55900 ng/g; the concentration at 24 h is 159 µM and 52800 ng/g. The Cmax (female, CD-1, mouse, in vivo, po, 30 mg/kg, Cmax plasma, single 30 mg/kg p.o., female CD-1 mice) turned out to be 2000 nM. Further, for the setting “female, CD-1, mouse, in vivo, po, 30 mg/kg, Cmax whole lung, single 30 mg/kg p.o., female CD-1 mice”, the Cmax is 225 µM and 75000 ng/g. Where the note is “read-out: Cmax whole lung, single 30 mg/kg p.o., female CD-1 mice, listed as BDM91288 (5)”, the Cmax worked out at 225000 nM.
